The results in this text go back to patent US6054455A, “Method for treating or preventing chronic nonbacterial prostatitis and prostatodynia” (Merck & Co., Inc., priority 1999, dated 2000).

The test system of the test is patients suffering from chronic nonbacterial prostatitis. The test can be described thus: Double-blind, placebo-controlled study of a substance P antagonist in patients suffering from chronic nonbacterial prostatitis. The test is classed as in vivo, human. The note with it: 30 mg/day; assessed by immunological profile, rating scales, checklists and diminishment of the attendant disease state. The method, then:
Double-Blind, Placebo-Controlled Study to Determine the Effect of a Substance P Antagonist on Patients Suffering from Chronic Nonbacterial Prostatitis Approximately twenty patients diagnosed as suffering from chronic nonbacterial prostatitis receive either the substance P receptor antagonist 2-(R)-(1-(R)-(3,5-bis(trifluoromethyl)-phenyl)-ethoxy)-3-(S)-(4-fluoro-phenyl)-4-(3-(5-oxo-1H,4H-1,2,4-triazolo)methyl-morpholine (30 mg/day) or a placebo. Each subject participates in 6 randomized test periods; in 3 of the test periods, each is given the substance P antagonist and in the other 3 test periods, is given a placebo. Efficacy of the test compound is assessed by reference to immunological profile, rating scales, checklists and diminishment of the attendant disease state.

Each structure is given as a SMILES string.

For `C[C@@H](O[C@H]1OCCN(Cc2n[nH]c(=O)[nH]2)[C@H]1c1ccc(F)cc1)c1cc(C(F)(F)F)cc(C(F)(F)F)c1` [2-(R)-(1-(R)-(3,5-bis(trifluoromethyl)-phenyl)-ethoxy)-3-(S)-(4-fluoro-phenyl)-4-(3-(5-oxo-1H,4H-1,2,4-triazolo)methyl-morpholine], the “effect with respect to placebo in the treatment or prevention of chronic nonbacterial prostatitis” value was “positive effect with respect to placebo”.
